In patent US20110262368A1, “C21 THIOETHERS AS GLUCOCORTICOID RECEPTOR AGONISTS” (Schering Corporation, priority 2007, published 2011):
Where two headings read alike, the source gives them in different places.

Legend:
Male Brown Norway Rats = conditions: rat, in vivo, ip, 2 days
Description: Thymus weight reduction studies were performed in accordance to the NIH GUIDE TO THE CARE AND USE OF LABORATORY ANIMALS and the Animal Welfare Act in an AAALAC-accredited program. Male Brown Norway Rats (200-250 g, Charles River, Bloomington, Mass., USA) were used in these studies. The effect of test steroid compounds compared to a control group was studied on thymus involution. […] Rats were dosed i.p. with test compound QD for two days. Twenty four hours after the 2nd dose, animals were euthanized with pentobarbital (125 mg/kg, i.p.). The thymus were removed and weighed and the results expressed as a percentage thymus involution. Doses are expressed in mg/kg. “NS” means not statistically significant.

[1] = cited from earlier work

C[C@@H]1CC2C3CCC4=CC(=O)C=CC4(C)[C@@]3(F)[C@@H](O)CC2(C)[C@@]1(O)C(=O)CSc1nc2ccccc2s1 (stereo partly drawn) [US′120]
% Thymus Involution (Male Brown Norway Rats; 10 mg/kg): 62 ± 3%

CC12CCC(=O)C=C1CCC1C2[C@@H](O)CC2(C)C1CC[C@]2(O)C(=O)CSc1nc2ccccc2s1 (stereo partly drawn) [Inventive Compound A]
% Thymus Involution (Male Brown Norway Rats; 30 mg/kg): −4 ± 7%

Oc1cccc(Nc2ncc(F)c(Nc3cccc(O)c3)n2)c1 [Example R112]
improvement from baseline measurements of symptoms associated with chronic nasal congestion ([1]; from baseline (prior to drug initiation)): up to 38% | absolute difference over placebo, symptoms associated with chronic nasal congestion ([1]; versus placebo, absolute): 9% | relative improvement over placebo, symptoms associated with chronic nasal congestion ([1]; versus placebo, relative): greater than 20%

CC12C[C@H](O)[C@@]3(F)C(CCC4=CC(=O)CCC43C)C1CC[C@]2(O)C(=O)CSc1nc2ccccc2s1 (stereo partly drawn) [Inventive Compound B]
% Thymus Involution (Male Brown Norway Rats; 30 mg/kg): 10 ± 4%
